Counter-ions that a name gives are not always drawn.

The experiment deals with T1, Full length human TNNI3K (hTNNI3K) (Homo sapiens, UniProt Q59H18).
T1 construct: His-MBP-TEV-Full length human TNNI3K (hTNNI3K); His (N); MBP (N); TEV cleavage site (N); made in house; host or cells: baculovirus system (printed 'Baculokinase system')
T1 sequence (Q59H18 1-835): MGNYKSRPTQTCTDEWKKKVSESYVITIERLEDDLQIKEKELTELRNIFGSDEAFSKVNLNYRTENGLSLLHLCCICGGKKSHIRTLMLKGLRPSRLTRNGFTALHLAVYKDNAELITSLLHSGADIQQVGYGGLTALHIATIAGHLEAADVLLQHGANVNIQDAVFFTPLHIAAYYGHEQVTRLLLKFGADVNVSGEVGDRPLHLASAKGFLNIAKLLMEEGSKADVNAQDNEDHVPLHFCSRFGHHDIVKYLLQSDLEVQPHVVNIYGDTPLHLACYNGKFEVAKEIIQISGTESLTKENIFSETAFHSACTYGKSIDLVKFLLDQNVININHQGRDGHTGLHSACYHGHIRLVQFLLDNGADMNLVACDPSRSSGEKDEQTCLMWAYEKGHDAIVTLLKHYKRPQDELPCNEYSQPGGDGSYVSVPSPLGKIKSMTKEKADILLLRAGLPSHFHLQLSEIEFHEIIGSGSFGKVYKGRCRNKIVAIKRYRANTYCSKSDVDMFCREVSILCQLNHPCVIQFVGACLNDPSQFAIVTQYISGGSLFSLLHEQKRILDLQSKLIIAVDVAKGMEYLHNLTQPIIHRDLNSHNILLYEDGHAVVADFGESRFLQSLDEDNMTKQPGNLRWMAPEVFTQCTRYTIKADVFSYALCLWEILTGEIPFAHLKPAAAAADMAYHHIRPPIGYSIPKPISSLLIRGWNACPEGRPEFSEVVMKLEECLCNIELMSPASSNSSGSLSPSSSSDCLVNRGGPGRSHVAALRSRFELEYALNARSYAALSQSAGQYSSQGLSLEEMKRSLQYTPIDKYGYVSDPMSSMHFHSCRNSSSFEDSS
Nature of the experiment: Fluorescent polarization assay of compound inhibition on hTNNI3K ATP binding (Biological Assay Method I). As to conditions: displacement of fluorescent ligand from hTNNI3K ATP binding pocket; mean of a minimum of 2 experiments; read-out: pXC50 (the source's name) (converted).

For `CNS(=O)(=O)c1ccc(N(C)C)c(Nc2ncnc3cc(OCCCN4CCOCC4)ccc23)c1` [Example 73, 4-(dimethylamino)-N-methyl-3-[(7-{[3-(4-morpholinyl)propyl]oxy}-4-quinazolinyl)amino]benzenesulfonamide hydrochloride], the IC50 is 0.001 to 0.01 µM. The figure for `CNS(=O)(=O)c1ccc(OCC(F)(F)F)c(Nc2ncnc3cc(OCCCN4CCOCC4)ccc23)c1` [Example 74, N-methyl-3-[(7-{[3-(4-morpholinyl)propyl]oxy}-4-quinazolinyl)amino]-4-[(2,2,2-trifluoroethyl)oxy] benzenesulfonamide trifluoroacetate] is 0.01 to 0.1 µM; for `CNS(=O)(=O)c1ccc(OCC(F)(F)F)c(Nc2ncnc3cc(OCCCOC)ccc23)c1` [Example 75, N-methyl-3-[(7-{[3-(methyloxy)propyl]oxy}-4-quinazolinyl)amino]-4-[(2,2,2-trifluoroethyl)oxy]benzenesulfonamide] it is 0.01 to 0.1 µM; for `CNS(=O)(=O)c1ccc(N(C)C)c(Nc2ncnc3cc(OCCCOC)ccc23)c1` [Example 76, 4-(dimethylamino)-N-methyl-3-[(7-{[3-(methyloxy)propyl]oxy}-4-quinazolinyl)amino] benzenesulfonamide] it is 0.001 to 0.01 µM. As for `CNS(=O)(=O)c1ccc(S(C)(=O)=O)c(Nc2ncnc3cc(OC)cc(OC)c23)c1` [Example 77, 3-{[5,7-bis(methyloxy)-4-quinazolinyl]amino}-N-methyl-4-(methylsulfonyl)benzenesulfonamide trifluoroacetate], the figure is 0.01 to 0.1 µM; as for `CCOc1cc2ncnc(Nc3cc(S(=O)(=O)NC)ccc3OCC(F)(F)F)c2cc1OC` [Example 80, 3-(7-ethoxy-6-methoxy-quinazolin-4-ylamino)-N-methyl-4-(2,2,2-trifluoro-ethoxy)-benzenesulfonamide trifluoroacetate], 0.01 to 0.1 µM; as for `CNS(=O)(=O)c1ccc(OCC(F)(F)F)c(Nc2ncnc3cc(OCCOC)c(OC)cc23)c1` [Example 81, 3-[6-methoxy-7-(2-methoxy-ethoxy)-quinazolin-4-ylamino]-N-methyl-4-(2,2,2-trifluoro-ethoxy)-benzenesulfonamide trifluoroacetate], 0.01 to 0.1 µM.

Turning to `CNS(=O)(=O)c1ccc(N(C)C)c(Nc2ncnc3ccc(N)cc23)c1` [Example 84, 3-((6-aminoquinazolin-4-yl)amino)-4-(dimethylamino)-N-methylbenzenesulfonamide], the IC50 is 0.01 to 0.1 µM. As for `CNS(=O)(=O)c1ccc(N(C)C)c(Nc2ncnc3cc(N)ccc23)c1` [Example 85, 3-((7-aminoquinazolin-4-yl)amino)-4-(dimethylamino)-N-methylbenzenesulfonamide], the figure is 0.01 to 0.1 µM; as for `CNS(=O)(=O)c1ccc(N(C)C)c(Nc2ncnc3ccc(N(C)C)cc23)c1` [Example 86, 4-(dimethylamino)-3-((6-(dimethylamino)quinazolin-4-yl)amino)-N-methylbenzenesulfonamide bis(trifluoroacetate)], 0.01 to 0.1 µM; as for `CNc1ccc2ncnc(Nc3cc(S(=O)(=O)NC)ccc3N(C)C)c2c1` [Example 87, 4-(dimethylamino)-N-methyl-3-((6-(methylamino)quinazolin-4-yl)amino)benzenesulfonamide bis(trifluoroacetate)], 0.01 to 0.1 µM. The figure for `CNc1ccc2c(Nc3cc(S(=O)(=O)NC)ccc3N(C)C)ncnc2c1` [Example 88, 4-(dimethylamino)-N-methyl-3-((7-(methylamino)quinazolin-4-yl)amino) benzenesulfonamide] is 0.01 to 0.1 µM.

(Values after patent US8859571B2, “Quinazoline compounds” (GlaxoSmithKline LLC, priority 2009, dated 2014).)
